Measured values from patent US10512631B2, “Chalcone compounds” (Beth Israel Deaconess Medical Center, Inc., priority 2015, dated 2019).

Key:
Format in all cases: cell-based
[1] = system: PC3 (prostate cancer), A549 (lung cancer), CLR2119 and PAN02 (pancreatic cancer); assay: Crystal violet staining, four cancer cell lines; conditions: range over four cell lines, 72 hours, 0.01-10 μM; highest efficiency in PC3; read-out: IC50, survival of cancer cells
Method: (§1) PC3 (provided by Dr. Steven Balk's laboratory in Department of Medicine at Beth Israel Deaconess Medical Center), PANC02 and CRL2119 (provided by Dr. Pankaja Seth's laboratory in Department of Medicine at Beth Israel Deaconess Medical Center), A549 (ATCC) cell lines were cultured according to manufacturer's protocols. Briefly, PC3 were cultured in RPMI medium supplemented with 10% FBS (Atlanta). PANC-2, A549 and CRL2119 were cultured in DMEM High medium supplemented with 10% FBS (Atlanta). Human bronchial epithelial cells (BEC) were cultured in Airway Epithelial Cell Basal Medium with the Bronchial Epithelial cell growth kit (ATCC) according to manufacturer's protocol and used at passages 3-5.
(§2) Cells were seeded at 5×10^3 concentration in 96 well plates and treated with test compounds or DMSO (0.001-10 μM) for 72 hours. Culture medium was removed and cells were stained with crystal violet solution (Sigma-Aldrich) for 15 minutes while shaking at room temperature. Crystal violet was then removed and cells were repeatedly washed in water. Attached cells stained with crystal violet were dried and then resuspended in 10% acetic acid. Absorbance was measured at 562 nm. The intensity of staining corresponded directly to the number of live cells.

PC3 cells = assay: Annexin V staining; conditions: 24 hours
Method: PC3 cells were seeded at 1×10^5 concentration in 6 well plates 24 hours before experiment. Cells were treated with Compound 6 for 24 hours. Cells were harvested and apoptosis rate was measured using Annexin V-FITC staining according to manufacturer's protocol (BD Biosciences, San Jose, Calif.).

STMN1 = STMN1 immunostaining and immunoblotting in PC3 cells; conditions: PC3 cells, 0.01, 0.1 and 1 μM; 30 minutes, 1 hour, 24 hours
Method: Immunofluorescence and immunostaining on cell lines and tumor samples were performed as described in Wegiel et al, Cancer research 2013, 73(23), 7009-21. Anti-mouse STMN1, anti-P (Ser10)-Histone H3, and α-tubulin antibody were obtained from Cell Signaling. β-actin antibody was obtained from Sigma-Aldrich. Cells were treated with Compound 6 (1 μM) or DMSO for 48 hours. After immunofluorescence staining, the number of P-Histone H3 was quantified per field of view at 40× magnification using Zeiss Axiovert Microscope.
(§3) Snap-frozen tissue samples were homogenized in ice-cold tissue lysis buffer (250 mM NaCl, 5 mM EDTA, 1% Triton X-100, 10 mM Tris-HCl; pH 7.5) containing the protease inhibitor cocktail Complete Mini (Roche). For co-immunoprecipitation, 200 μg protein lysates in RIPA buffer and the protease inhibitor cocktail were mixed with appropriate antibodies and 30 μl Protein A/G Plus-agarose beads (Santa Cruz Biotechnology) and then rotated for 1 hour at room temperature. The proteins were washed with RIPA buffer and eluted (95° C., 5 min in SDS loading buffer). Immunoblotting was performed as previously described in Chin et al., Proc. Natl. Acad. Sci. USA 2007, 104(12), 5109-14. Antibodies: P (Ser967)-ASK1 (Cell Signaling), Ask1 (Cell Signaling), P-STMN1 (Ser16) (Cell Signaling), STMN1 (Cell Signaling), 13-Actin (Sigma) were used at 1:1000 dilution.

[2] = target: T1, ASK1 kinase and STMN1 interaction (Homo sapiens, UniProt Q99683); assay: Immunoprecipitation of STMN1 / immunoblotting of P-ASK1; conditions: A549 cells, 1 μM, 30 minutes
T1 construct: immunoblotting with antibody against P-ASK1 (Ser83) in A549 cells treated with 1 μM Compound 6 or DMSO; endogenous in cells; host or cells: A549 cells
T1 sequence (Q99683 1-1374): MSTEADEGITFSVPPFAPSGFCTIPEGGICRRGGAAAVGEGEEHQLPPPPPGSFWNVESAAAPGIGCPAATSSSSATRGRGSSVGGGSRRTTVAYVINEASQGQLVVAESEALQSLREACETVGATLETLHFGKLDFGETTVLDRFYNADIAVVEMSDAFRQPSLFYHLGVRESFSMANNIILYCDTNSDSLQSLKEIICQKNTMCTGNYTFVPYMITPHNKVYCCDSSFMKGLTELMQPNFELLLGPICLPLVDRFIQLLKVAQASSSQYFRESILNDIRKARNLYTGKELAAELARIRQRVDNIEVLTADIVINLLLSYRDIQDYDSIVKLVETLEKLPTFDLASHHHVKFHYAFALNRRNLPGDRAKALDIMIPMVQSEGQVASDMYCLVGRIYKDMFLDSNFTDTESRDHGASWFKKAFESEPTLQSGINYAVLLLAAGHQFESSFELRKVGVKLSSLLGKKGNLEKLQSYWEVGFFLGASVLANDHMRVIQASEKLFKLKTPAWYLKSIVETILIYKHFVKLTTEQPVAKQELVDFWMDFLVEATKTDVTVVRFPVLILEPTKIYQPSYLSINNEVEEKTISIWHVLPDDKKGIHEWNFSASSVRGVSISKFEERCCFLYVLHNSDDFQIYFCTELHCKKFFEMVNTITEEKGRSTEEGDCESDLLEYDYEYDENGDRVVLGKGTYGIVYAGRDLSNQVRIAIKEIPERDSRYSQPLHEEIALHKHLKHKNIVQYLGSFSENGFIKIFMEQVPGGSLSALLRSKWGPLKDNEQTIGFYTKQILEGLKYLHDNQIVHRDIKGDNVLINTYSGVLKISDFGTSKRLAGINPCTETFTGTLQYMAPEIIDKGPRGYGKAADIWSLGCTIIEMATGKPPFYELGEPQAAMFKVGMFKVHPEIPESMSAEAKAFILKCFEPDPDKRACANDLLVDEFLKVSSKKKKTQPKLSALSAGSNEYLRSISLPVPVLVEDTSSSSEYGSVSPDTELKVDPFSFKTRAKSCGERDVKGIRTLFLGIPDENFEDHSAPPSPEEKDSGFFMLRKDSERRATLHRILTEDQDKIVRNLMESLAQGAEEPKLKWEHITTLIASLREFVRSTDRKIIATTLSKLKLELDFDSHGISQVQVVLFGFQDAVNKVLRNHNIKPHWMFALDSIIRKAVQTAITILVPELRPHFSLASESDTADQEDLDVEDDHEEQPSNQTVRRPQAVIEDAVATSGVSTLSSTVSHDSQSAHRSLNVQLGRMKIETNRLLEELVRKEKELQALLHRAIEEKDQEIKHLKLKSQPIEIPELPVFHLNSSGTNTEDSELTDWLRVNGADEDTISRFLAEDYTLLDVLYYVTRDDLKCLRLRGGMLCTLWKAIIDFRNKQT
Method: as §3

PC3 [3] = assay: Cytoxicity / crystal violet staining, PC3; conditions: average of triplicates, % of apoptotic cells vs DMSO controls, N.A. = not active at 10 μM
Method: as §1, §2

PC3 [4] = assay: Cytoxicity / crystal violet staining, PC3; conditions: Homo sapiens, PC-3; 0.01-5 μM for 72 hours, n=4

Cn1ccc2cc(/C=C3\CCc4ccc(F)cc4C3=O)ccc21 [Compound 6, (2E)-7-fluoro-2-[(1-methyl-1H-indol-5-yl)methylidene]-1,2,3,4-tetrahydronaphthalen-1-one] was tested. Which IC50 [1] did it give?
Its IC50 is 0.14 to 0.3 µM.

What about the “Annexin V-positive cells” value (PC3 cells) of the same compound?
The value was “increased number of Annexin V-positive cells”.

What about the “STMN1 level by immunoblotting” value (STMN1) of the same compound?
The value was “very early (30 minutes to 1 hour) stabilization of STMN1”.

What about the “ASK1 kinase and STMN1 interaction” value [2] of the same compound?
The value was “significantly blocked”.

And the “Cytoxicity (% cell killing at 10 μM) PC3” value (PC3 [3])?
The value was 49%.

And the IC50 (PC3 [4])?
The IC50 was 0.147 µM.
